Test results from patent US10596166B2, “Combination composition comprising huperzine” (priority 2015, dated 2020).
Read-outs that look alike come from different tables or passages of the source.

Columns and labels:
[1] = test system: TH positive dopaminergic neurons injured with MPP+; assay: MPP+ toxicity on TH positive dopaminergic neurons of primary mesencephalic culture; type: cell-based, rat; details: MPP+ 4 μM, 48 h
Description: Rat dopaminergic neurons were cultured as described by Schinelli et al., J Neurochem. 1988 June; 50(6):1900-7 and Visanji et al., 2008 [previously cited].
Briefly, the midbrains obtained from 15-days old rat embryos (Janvier Labs, France) were dissected under a microscope. The embryonic midbrains were removed and placed in ice-cold medium of Leibovitz (L15, Pan Biotech) containing 2% of Penicillin-Streptomycin (PS, Pan Biotech) and 1% of bovine serum albumin (BSA, Pan Biotech). The ventral portion of the mesencephalic flexure, a region of the developing brain rich in dopaminergic neurons, was used for the cell preparations.
The midbrains were dissociated by trypsinisation for 20 min at 37° C. (Trypsin 0.05% EDTA 0.02%, PanBiotech). The reaction was stopped by the addition of Dulbecco's modified Eagle's medium (DMEM, PanBiotech) containing DNAase I grade II (0.1 mg/ml, PanBiotech) and 10% of foetal calf serum (FCS, Gibco). Cells were then mechanically dissociated by 3 passages through a 10 ml pipette. Cells were then centrifuged at 180×g for 10 min at +4° C. on a layer of BSA (3.5%) in L15 medium. The supernatant was discarded and the cell pellets were re-suspended in a defined culture medium consisting of Neurobasal (Invitrogen) supplemented with B27 (2%, Invitrogen, Batch: 1589889), L-glutamine (2 mM, PanBiotech) and 2% of PS solution and 10 ng/ml of Brain-derived neurotrophic factor (BDNF, PanBiotech) and 1 ng/ml of Glial-Derived Neurotrophic Factor (GDNF, PanBiotech). Viable cells were counted in a Neubauer cytometer using the trypan blue exclusion test. The cells were seeded at a density of 40 000 cells/well in 96 well-plates pre-coated with poly-L-lysine (Corning Biocoat) and maintained in a humidified incubator at 37° C. in 5% CO2/95% air atmosphere. Half of the medium was changed every 2 days with fresh medium.
On day 6 of culture, the medium was removed and fresh medium was added, without or with MPP^+ (Sigma) at 4 μM diluted in control medium, 6 wells per condition were assessed.
On day 6 of culture, NSP01-001-E001 (2.5, 5, 50, 500 ng/ml, 2.5, 5, 25, 33.3 μg/ml) were solved or diluted in culture medium and then pre-incubated with primary mesencephalic neurons for 1 hour before the MPP^+ application. MPP^+ solution was added to a final concentration of 4 μM diluted in control medium.
After 48 hours intoxication, the cells were then fixed by a solution of 4% paraformaldehyde (PFA, Sigma) in PBS (PAN), pH=7.3 for 20 min at room temperature. The cells were washed again twice in PBS, and then were permeabilized and non-specific sites were blocked with a solution of PBS containing 0.1% of saponin (Sigma) and 1% FCS for 15 min at room temperature. Then, cells were incubated with Monoclonal Anti-Tyrosine Hydroxylase (TH, Sigma) antibody produced in mouse at dilution of 1/10000 in PBS containing 1% FCS, 0.1% saponin, for 2 h at room temperature.
The immunolabeled cultures were automatically examined with ImageXpress (Molecular Devices) equipped with a LED at ×10 magnification. For each condition (6 culture wells), 20 automatically fields per well (representing ˜80% of the total surface of the well) were analyzed. The total number of TH neurons was automatically analyzed using MetaXpress software (Molecular Devices). Data were expressed in percentage of control conditions (no intoxication, no MPP^+=100%) in order to express the MPP^+ injury. All values were expressed as mean±SEM (s.e. mean) of the 6 wells. Graphs and statistical analyses were performed on the different conditions (ANOVA followed by Dunnett's or PLSD Fisher's test when allowed, using GraphPad Prism software).
The protocol used in these assays is the same as described in example 4.
HA (1, 10, 100 nM, 1, 10, 100 μM), CA (5, 50, 500 pM, 5, 50, 500 nM, 1 μM), FA (100 pM, 1, 10, 100 nM, 1, 10, 100 μM and 1 mM) and mixtures thereof were solved or diluted in culture medium and then pre-incubated with primary mesencephalic neurons for 1 hour before the MPP^+ application. […]

[2] = test system: Acetylcholinesterase (AChE)
Description: Test compounds alone or in association in mixture were solved at different concentrations in medium and then pre-incubated with kit of measure AchE (Promega, France).
Test compounds alone or in association in the NSP01-001-E001 prepared according to example 4 were solved at different concentrations in medium and then pre-incubated with kit of measure AchE (Promega, France).
Kit achetylcholinesterase (Abcam ref ab138871) was used. […] A 10-minutes incubation time was applied. The absorbance was assessed at 410 nm.
The activity of the AchE was evaluated versus an AchE activity standard curve.
Data were expressed in percentage of control conditions (no compound=100%). All values were expressed as mean+/−SEM (s.e.mean) (n=6 wells per condition per culture). Graphs and statistical analyses on the different conditions (ANOVA followed by PLSD Fisher's test when allowed, were performed using GraphPad Prism software version 5.0).

[3] = test system: Alzheimer's disease patients; details: particularly at a daily dose of 300-500 μg; cited from earlier work

For `O=C(O)/C=C/c1ccc(O)c(O)c1` [CA, caffeic acid], the “TH positive neuron survival” value ([1]; 5 nM up to 1 μM) was “large and significant protective effect” and the “inhibition of AChE” value ([2]; 50 pM) was ~8%.
With `COc1cc(/C=C/C(=O)O)ccc1O` [FA, ferulic acid] the “concentration of maximal effect (bell shape curve)” value [1] was 10 µM, the “TH positive neuron survival” value ([1]; 100 pM up to 100 nM) was “inactive” and the “TH positive neuron survival” value ([1]; from 1 μM to 1 mM) was “significant protective effect”. For the same compound, the “inhibition of AChE” value ([2]; 100 pM) was ~8%.
In the case of `C/C=C1\[C@H]2C=C(C)C[C@]1(N)c1ccc(=O)[nH]c1C2` [HA, huperzine A, reference compound], the “TH positive neuron survival” value ([1]; 1 nM) is reported as “inactive”, the “TH positive neuron survival” value ([1]; 100 nM) is reported as > 90% and the “TH positive neuron survival” value ([1]; 100 μM (in some well toxicity occurred)) is reported as “did not show some protective effect”. For the same compound, the “TH positive neuron survival” value ([1]; from 10 nM up to 10 μM) was “large and significant protective effect” and the tolerability and benefit [3] was “well-tolerated and beneficial”.
